Series [1] relates to BALB/c 3T3 (CCL-163) cells.
The conditions of series [2]: 250 mg every six hours over a twenty-four hour period; cited from earlier work.
For series [3] the following is noted: based on steady-state pharmacokinetics; cited from earlier work.
The conditions of series [4]: single dose of two 100 mg minocycline HCl tablets, adult humans; cited from earlier work.

Molecules are shown by their SMILES. Structures can show the parent of a compound that is named as a salt. Where two headings read alike, the source gives them in different places.

Take `CN(C)CC(=O)Nc1ccc2c(c1O)C(=O)C1=C(O)C3(O)C(=O)C(C(N)=O)=C(O)CC3CC1C2` (stereo not shown) [COL 309, 9-dimethylaminoacetamido-6-demethyl-6-deoxy-4-dedimethylaminotetracycline]: in series [1], the MPE is given as 0.170, the “PIF 1” value is on record as 5.17 and the “PIF 2” value is given as 12.87.

For `NC(=O)C1=C(O)CC2CC3Cc4ccc(N)c(O)c4C(=O)C3=C(O)C2(O)C1=O` (stereo not shown) [COL 308, 9-amino-6-demethyl-6-deoxy-4-dedimethylaminotetracycline], in series [1], the MPE is 0.015 and the “PIF 1” value was determined as 1.0.

Take `CN(C)[C@@H]1C(O)=C(C(N)=O)C(=O)[C@@]2(O)C(O)=C3C(=O)c4c(O)cccc4[C@@](C)(O)[C@H]3C[C@@H]12` [tetracycline HCl]: the peak plasma concentration result in series [2] is “approximately 3 μg/ml”.

Consider `CN(C)c1cc([N+](=O)[O-])c(O)c2c1CC1CC3CC(O)=C(C(N)=O)C(=O)C3(O)C(O)=C1C2=O` (stereo not shown) [COL 1002, 9-nitro-4-dedimethylaminominocycline], for which, in series [1], the MPE is 0.040, the “PIF 1” value is reported as 1.0, the “PIF 2” value came to 1.35 and the “mean PIF2” value came to 1.35.

Take `CN(C)[C@@H]1C(O)=C(C(N)=O)C(=O)[C@@]2(O)C(O)=C3C(=O)c4c(O)cccc4[C@@](C)(O)[C@H]3C[C@@H]12` [Tetracycline, reference compound]: in series [1] (mouse), the MPE is given as 0.340 and the “PIF 1” value worked out at 5.38. Also, the “plasma antibiotic threshold level” value in series [3] was 0.5 µg/mL.

On to `CN(C)c1ccc(O)c2c1CC1CC3CC(O)=C(C(N)=O)C(=O)C3(O)C(O)=C1C2=O` (stereo not shown) [COL 10, 4-dedimethylaminominocycline], for which, in series [1], the MPE was determined as 0.099, the “PIF 1” value stood at 1.82, the “PIF 2” value was found to be 2.04 and the “mean PIF2” value is 2.04.

For the compound `CN(C)c1ccc2c(c1O)C(=O)C1=C(O)C3(O)C(=O)C(C(N)=O)=C(O)CC3CC1C2` (stereo not shown) [COL 306, 9-dimethylamino-6-demethyl-6-deoxy-4-dedimethylaminotetracycline], in series [1], the MPE is 0.038, the “PIF 1” value is reported as 1.64 and the “PIF 2” value was found to be 1.56.

`NC(=O)C1=C(O)C[C@@H]2C[C@@H]3Cc4cccc(O)c4C(=O)C3=C(O)[C@]2(O)C1=O` [COL 3, 6-demethyl-6-deoxy-4-dedimethylaminotetracycline]: in series [1], the MPE was determined as 0.654, the “PIF 1” value was 647 and the “PIF 2” value is on record as 84.72.

As for `CC1c2ccc([N+](=O)[O-])c(O)c2C(=O)C2=C(O)C3(O)C(=O)C(C(N)=O)=C(O)CC3C(O)C21` (stereo not shown) [COL 804, 9-nitro-4-dedimethylaminodoxycycline], in series [1], the MPE turned out to be 0.003 and the “PIF 1” value was found to be 1.0.

With `CC(=O)Nc1ccc2c(c1O)C(=O)C1=C(O)C3(O)C(=O)C(C(N)=O)=C(O)CC3CC1C2` (stereo not shown) [COL 305, 9-acetamido-6-demethyl-6-deoxy-4-dedimethylaminotetracycline], the MPE in series [1] amounted to 0.420.

As for `C[N+](C)(C)c1ccc(O)c2c1CC1CC3CC(O)=C(C(N)=O)C(=O)C3(O)C(O)=C1C2=O` (stereo not shown) [COL 1001, 7-trimethylammonium-4-dedimethylaminosancycline], in series [1], the MPE stood at 0.025.

In the case of `CCCCCCCCCCCCCCCC(=O)Nc1ccc2c(c1O)C(=O)C1=C(O)C3(O)C(=O)C(C(N)=O)=C(O)CC3CC1C2` (stereo not shown) [COL 311, 9-palmitamide-6-demethyl-6-deoxy-4-dedimethylaminotetracycline], in series [1], the MPE turned out to be 0.013 and the “PIF 1” value turned out to be 1.0.

In series [1], `CC1c2cccc(O)c2C(=O)C2=C(O)C3(O)C(=O)C(C(=O)NCN4CCNCC4)=C(O)CC3C(O)C21` (stereo not shown) [COL 809, 2-CONHCH2-piperazin-1-yl-4-dedimethylaminodoxycycline] had an MPE of 0.420.

As to `O=C(NCN1CCCC1)C1=C(O)CC2CC3Cc4cccc(O)c4C(=O)C3=C(O)C2(O)C1=O` (stereo not shown) [COL 312, 2-CONHCH2-pyrrolidin-1-yl-6-demethyl-6-deoxy-4-dedimethylaminotetracycline], in series [1], the MPE came to 0.442, the “PIF 1” value is 62.67 and the “PIF 2” value is listed as 75.11.

Regarding `NC(=O)C1=C(O)CC2CC3Cc4c(N)ccc(O)c4C(=O)C3=C(O)C2(O)C1=O` (stereo not shown) [COL 307, 7-amino-6-demethyl-6-deoxy-4-dedimethylaminotetracycline], in series [1], the MPE is on record as 0.056 and the “PIF 1” value worked out at 1.17.

`CC1c2cccc(O)c2C(=O)C2=C(O)C3(O)C(=O)C(C(N)=O)=C(O)CC3C(O)C21` (stereo not shown) [COL 8, 4-dedimethylaminodoxycycline]: in series [1], the MPE was 0.703, the “PIF 1” value stood at 165 and the “PIF 2” value is 82.61.

Regarding `O=C(NCN1CCNCC1)C1=C(O)CC2CC3Cc4cccc(O)c4C(=O)C3=C(O)C2(O)C1=O` (stereo not shown) [COL 315, 2-CONHCH2-piperazin-1-yl-6-demethyl-6-deoxy-4-dedimethylaminotetracycline], in series [1], the MPE came to 0.276, the “PIF 1” value is given as 15.8 and the “PIF 2” value is 35.30.

As to `CC1(O)c2cccc(O)c2C(=O)C2=C(O)C3C(=O)C(C(N)=O)=C(O)CC3CC21` (stereo not drawn) [COL 7, 4-dedimethylamino-12α-deoxytetracycline], the MPE in series [1] is on record as 0.531.

Turning to `NC(=O)C1=C(O)CC2CC3Cc4c([N+](=O)[O-])ccc(O)c4C(=O)C3=C(O)C2(O)C1=O` (stereo not shown) [COL 302, 7-nitro-6-demethyl-6-deoxy-4-dedimethylaminotetracycline], in series [1], the MPE was 0.378, the “PIF 1” value turned out to be 23.16 and the “PIF 2” value is 23.32.

For `CC1(O)c2c(Cl)ccc(O)c2C(=O)C2=C(O)C3(O)C(=O)C(C(N)=O)=C(O)CC3CC21` (stereo not shown) [COL 4, 7-chloro-4-dedimethylaminotetracycline], in series [1], the MPE is on record as 0.570.

`CC1(O)c2cccc(O)c2C(=O)C2=C(O)C3(O)C(=O)C(C(N)=O)=C(O)C(O)C3CC21` (stereo not shown) [COL 6, 4-hydroxy-4-dedimethylaminotetracycline] gave an MPE in series [1] of 0.155.

For the compound `C[C@H]1c2cccc(O)c2C(=O)C2=C(O)[C@]3(O)C(=O)C(C(N)=O)=C(O)[C@@H](N(C)C)[C@@H]3[C@@H](O)[C@@H]21` [Doxycycline, 6α-deoxy-5-hydroxytetracycline, reference compound], in series [1] (mouse), the MPE amounted to 0.522, the “PIF 1” value came to 23.37 and the “PIF 2” value was found to be 26.71.

Turning to `CC(=O)Nc1ccc2c(c1O)C(=O)C1=C(O)C3(O)C(=O)C(C(N)=O)=C(O)CC3C(O)C1C2C` (stereo not shown) [COL 801, 9-acetamido-4-dedimethylaminodoxycycline], in series [1], the MPE is −0.001 and the “PIF 1” value is reported as 1.0.

In turn, `CCCCCCCCCCCCCCCC(=O)Nc1ccc2c(c1O)C(=O)C1=C(O)C3(O)C(=O)C(C(N)=O)=C(O)CC3C(O)C1C2C` (stereo not shown) [COL 803, 9-palmitamide-4-dedimethylaminodoxycycline] gave an MPE in series [1] of 0.047.

In series [1], `Cc1c2c(c(O)c3c(O)cccc13)C(=O)C1C(=O)C(C(N)=O)=C(O)CC1C2` (stereo not drawn) [COL 9, 4-de(dimethylamino)-12α-deoxyanhydrotetracycline] returned an MPE of 0.546.

As for `CC1c2ccc(NC(=O)CN(C)C)c(O)c2C(=O)C2=C(O)C3(O)C(=O)C(C(N)=O)=C(O)CC3C(O)C21` (stereo not shown) [COL 802, 9-dimethylaminoacetamido-4-dedimethylaminodoxycycline], in series [1], the MPE is reported as −0.123 and the “PIF 1” value amounted to 1.0.

Take `CN(C)C1C(=O)C(C#N)=C(O)C2(O)C(=O)C3=C(O)c4c(O)cccc4C(C)(O)C3CC12` (stereo not shown) [COL 2, tetracyclinonitrile]: in series [1], the MPE worked out at 0.005.

`CC1(O)c2cccc(O)c2C(=O)C2=C(O)C3(O)C(=O)C(C(N)=O)=C(O)CC3CC21` (stereo not shown) [COL 1, 4-dedimethylaminotetracycline] returned an MPE in series [1] of 0.460.

Consider `O=C(NCN1CCOCC1)C1=C(O)CC2CC3Cc4cccc(O)c4C(=O)C3=C(O)C2(O)C1=O` (stereo not shown) [COL 314, 2-CONHCH2-morpholin-1-yl-6-demetlyl-6-deoxy-4-dedimethylaminotetracycline], for which, in series [1], the MPE was found to be 0.475, the “PIF 1” value amounted to 41.1 and the “PIF 2” value worked out at 89.48.

On to `O=C(NCN1CCCCC1)C1=C(O)CC2CC3Cc4cccc(O)c4C(=O)C3=C(O)C2(O)C1=O` (stereo not shown) [COL 313, 2-CONHCH2-piperidin-1-yl-6-demethyl-6-deoxy-4-dedimethylaminotetracycline], for which, in series [1], the MPE is listed as 0.462, the “PIF 1” value is 80.27 and the “PIF 2” value was determined as 58.22.

On to `CC1c2cccc(O)c2C(=O)C2=C(O)C3(O)C(=O)C(C(=O)NCN4CCCC4)=C(O)CC3C(O)C21` (stereo not shown) [COL 807, 2-CONHCH2-pyrrolidin-1-yl-4-dedimethylaminodoxycycline], for which, in series [1], the MPE turned out to be 0.382 and the “PIF 1” value stood at 40.4.

Consider `CN(C)CCCN1c2ccccc2Sc2ccc(Cl)cc21` [Chlorpromazine, reference compound], for which, in series [1] (mouse), the MPE amounted to 0.639 and the “PIF 2” value stood at 40.38.

Take `NC(=O)C1=C(O)CC2CC3Cc4ccc([N+](=O)[O-])c(O)c4C(=O)C3=C(O)C2(O)C1=O` (stereo not shown) [COL 303, 9-nitro-6-demethyl-6-deoxy-4-dedimethylaminotetracycline]: in series [1], the MPE is reported as 0.309, the “PIF 1” value came to 5.27 and the “PIF 2” value was 13.82.

Regarding `CC1c2cccc(O)c2C(=O)C2=C(O)C3(O)C(=O)C(C(=O)NCN4CCCCC4)=C(O)CC3C(O)C21` (stereo not shown) [COL 808, 2-CONHCH2-piperidin-1-yl-4-dedimethylaminodoxycycline], in series [1], the MPE was 0.387 and the “PIF 1” value was found to be 46.45.

`CN(C)c1ccc(O)c2c1C[C@H]1C[C@H]3[C@H](N(C)C)C(O)=C(C(N)=O)C(=O)[C@@]3(O)C(O)=C1C2=O` [minocycline HCl]: in series [4], the “average minocycline serum level” value was 2.24 µg/mL.

As to `CC1c2ccc(N)c(O)c2C(=O)C2=C(O)C3(O)C(=O)C(C(N)=O)=C(O)CC3C(O)C21` (stereo not shown) [COL 805, 9-amino-4-dedimethylaminodoxycycline], in series [1], the MPE was found to be 0.022 and the “PIF 1” value is given as 1.0.
